# Measurements: ChEMBL document CHEMBL5726285, “Tricyclic compounds as anticancer agents” (2017)
# Target: Bromodomain-containing protein 4 (Homo sapiens, UniProt O60885)
# Assay: Time Resolved Fluorescence Resonance Energy Transfer (TR-FRET) Assay: The binding of compounds to bromodomain BRD4 (44-168), BRD4 (333-460), and BRD4 (1-477 or 44-460) was assessed using a time resolved fluorescent resonance energy transfer binding assay (1), that measures the binding of a fluorescently labeled probe molecule to the bromodomain protein. The bromodomain protein, fluorescent probe molecule (either a biotinylated histone peptide or a fluorescently labeled small molecule), and dose-responded test compound are incubated together to reach thermodynamic equilibrium. In the absence of a test compound, the bromodomain and small molecule are bound, resulting in a high fluorescent signal. In the presence of a sufficient concentration of inhibitor, this intercation is disrupted resulting in a lost of fluorescent resonance energy transfer.All assay components were dissolved in buffer composition 20 mM Hepes pH 7.5, 150 mM NaCl, 5 mM DTT, 0.005% Tween 20, and 100 ug/ml BSA for BRD4 (1-477 and 44-460). The final concentrations of the bromodomain proteins are 1.6 nM BRD4(44-168), 1 nM BRD4(333-460), and 1 nM BRD4(1-477 or 44-460), and the fluorescent probe molecule is 100 nM, 50 nM, and 7.5 nM respectively. All proteins were biotinylated. A streptavidin labeled with terbium cryptate (Cisbio SA-Tb) was used as detection, and pre-mixed with the bromodomain protein at a final concentration of 0.2 nM. In some instances for BRD4 (44-460), anti-His terbium cryptate was used as a detection. 7.5 nl of dose-responded test compound or dmso vehicle (0.0375%) was pre-spotted in a black Corning 384 well plate and 10 ul each of bromodomain/detection reagent and fluorescent small molecule solution were added to the plate, and the reaction incubated for 60 min at room temperature. Plates were then read on EnVision plate reader, (λex=340 nm, acceptor λEm=520 nm, and donor λEm=615 nm, LANCE D400 mirror). Time resolved fluorescnce intensity measurements were made at both emissions, and the ratio of acceptor/donor was calculated and used for data analysis.
row,SMILES,IC50 [nM]
1,COc1nnn(C)c1-c1cnc2c3c(OC)ncc(S(C)(=O)=O)c3n([C@H](c3ccccc3)C3CCOCC3)c2c1,< 10
2,Cc1nnn(C)c1-c1cnc2c3c(N(C)C(C)C)ncc(S(C)(=O)=O)c3n(C(c3ccccc3)C3CCC(F)(F)CC3)c2c1 (stereo not drawn),< 10
3,Cc1nnn(C)c1-c1cnc2c3ccc(N4CCN(C)CC4)nc3n(C(c3ccccc3)C3CCC(F)(F)CC3)c2c1 (stereo not drawn),< 1
4,Cc1nnn(C)c1-c1cnc2c3c(OC(C)C)ncc(S(C)(=O)=O)c3n(C(c3ccccc3)C3CCC(F)(F)CC3)c2c1 (stereo not drawn),< 10
5,COC1CN(c2ncc(S(C)(=O)=O)c3c2c2ncc(-c4c(C)nnn4C)cc2n3C(c2ccccc2)C2CCC(F)(F)CC2)C1 (stereo not drawn),< 10
6,Cc1nnn(C)c1-c1cnc2c3c(NCC(C)C)ncc(S(C)(=O)=O)c3n(C(c3ccccc3)C3CCC(F)(F)CC3)c2c1 (stereo not drawn),< 10
7,Cc1nnn(C)c1-c1cnc2c3c(NC(C)C)ncc(S(C)(=O)=O)c3n(C(c3ccccc3)C3CCC(F)(F)CC3)c2c1 (stereo not drawn),< 10
8,CNCCN(C)c1ccc2c3ncc(-c4c(C)nnn4C)cc3n(C(c3ccccc3)C3CCC(F)(F)CC3)c2n1 (stereo not drawn),< 10
